Measurements taken from ChEMBL document CHEMBL3507680, “University of Dundee, Gates Library screen for HepG2 cell viability”.

Assay: Human HepG2 cell viability assay in 384 well format
Type: toxicity, cell-based
Parameters: dose 125 nL, time 70.5 hour; concentration not given beside the values
Details: HepG2 cells, read-out: Inhibition

**Q.** For `O=C(NCCN1CCOCC1)N1CCN(c2ccccc2)CC1`, which cytotoxicity at 70.5 h is on record?
**A.** The cytotoxicity at 70.5 h was -10.1%.

**Q.** For `Cn1ccc(C(=O)N2CCCC(CNS(C)(=O)=O)C2)cc1=O` (configuration not stated), which cytotoxicity at 70.5 h is on record?
**A.** The cytotoxicity at 70.5 h was -8.6%.

**Q.** Which cytotoxicity at 70.5 h does the source give for `Cc1ccsc1C(Cc1ccccc1)NC(=O)CSCC(N)=O` (configuration not stated) here?
**A.** The cytotoxicity at 70.5 h was -4.76%.

**Q.** For `O=C(CCC1CCCCO1)NCc1cnn(-c2ccc(F)cc2F)c1` (configuration not stated), which cytotoxicity at 70.5 h is on record?
**A.** The cytotoxicity at 70.5 h was 8.18%.

**Q.** For `Cc1ccc(NC(=O)N2CCCN(C(N)=O)CC2)s1`, which cytotoxicity at 70.5 h is on record?
**A.** Its cytotoxicity at 70.5 h is 7.8%.

**Q.** Which cytotoxicity at 70.5 h does the source give for `CN(C)CCSc1ccc(NC(=O)c2nccn3ccnc23)cc1` here?
**A.** Its cytotoxicity at 70.5 h is -2.14%.

**Q.** For `O=C(N1CCN(CCO)CC1)C1(O)Cc2ccccc2C1`, which cytotoxicity at 70.5 h is on record?
**A.** The cytotoxicity at 70.5 h was -4.44%.

**Q.** With `O=C(N1CCSCC1)C1(O)Cc2ccccc2C1` as the compound, how does the cytotoxicity at 70.5 h read?
**A.** Its cytotoxicity at 70.5 h is -2.54%.

**Q.** For `Cc1cc(C)c(S(=O)(=O)Nc2c(C)noc2C)cc1C(=O)O`, which cytotoxicity at 70.5 h is on record?
**A.** The cytotoxicity at 70.5 h was -2.9%.

**Q.** For `O=C(Cn1cccc2oc(=O)nc1-2)NCC1Cc2ccccc2O1` (configuration not stated), which cytotoxicity at 70.5 h is on record?
**A.** Its cytotoxicity at 70.5 h is -5.36%.

**Q.** For `O=C(N1CCN(c2ccccc2O)CC1)C1(O)Cc2ccccc2C1`, which cytotoxicity at 70.5 h is on record?
**A.** The cytotoxicity at 70.5 h was 0.667%.

**Q.** Which cytotoxicity at 70.5 h does the source give for `CC(=O)c1ccc(C(=O)NCc2ccnc(N(C)C)n2)cc1` here?
**A.** The cytotoxicity at 70.5 h was 5.65%.

**Q.** For `Fc1cccnc1N1CCC(NCc2cccc3cn[nH]c23)C1` (configuration not stated), which cytotoxicity at 70.5 h is on record?
**A.** Its cytotoxicity at 70.5 h is 3.51%.

**Q.** Which cytotoxicity at 70.5 h does the source give for `Brc1ccc(C2(NCc3noc(C4CC4)n3)CCC2)cc1` here?
**A.** Its cytotoxicity at 70.5 h is 2.53%.

**Q.** With `CCC1CCC(N(Cc2cc(=O)n(C)c(=O)n2C)C2CC2)CC1` (configuration not stated) as the compound, how does the cytotoxicity at 70.5 h read?
**A.** Its cytotoxicity at 70.5 h is -5.27%.

**Q.** With `CC(C)N1CCCC(N2CCOC3(CCCC3)C2)C1=O` (configuration not stated) as the compound, how does the cytotoxicity at 70.5 h read?
**A.** Its cytotoxicity at 70.5 h is -7.02%.

**Q.** With `CC(C)N1CCC(N2CCOC3(CCCC3)C2)C1=O` (configuration not stated) as the compound, how does the cytotoxicity at 70.5 h read?
**A.** Its cytotoxicity at 70.5 h is -6.53%.

**Q.** For `O=C(c1ccc(SC(F)(F)F)cc1)N1CCOCC1c1ncon1` (configuration not stated), which cytotoxicity at 70.5 h is on record?
**A.** Its cytotoxicity at 70.5 h is -5.57%.

**Q.** Which cytotoxicity at 70.5 h does the source give for `CC(CCc1ccccc1F)C(=O)NS(=O)(=O)N(C)C(C)C` (configuration not stated) here?
**A.** Its cytotoxicity at 70.5 h is -12.3%.

**Q.** Which cytotoxicity at 70.5 h does the source give for `CC1CCN(CCCNC(=O)C2CCCCC2)CC1` here?
**A.** Its cytotoxicity at 70.5 h is -5.79%.

**Q.** With `CN(C1CCCCC1)S(=O)(=O)NC1CCCN(c2ncccn2)C1` (configuration not stated) as the compound, how does the cytotoxicity at 70.5 h read?
**A.** Its cytotoxicity at 70.5 h is -8.05%.

**Q.** Which cytotoxicity at 70.5 h does the source give for `CC(SCC(=O)NCCC#N)c1ccc(Cl)cc1` (configuration not stated) here?
**A.** The cytotoxicity at 70.5 h was -18.4%.

**Q.** With `O=C1CC(N(C(=O)c2ccc(Oc3ccccc3)cc2)C2CC2)C(=O)N1` (configuration not stated) as the compound, how does the cytotoxicity at 70.5 h read?
**A.** Its cytotoxicity at 70.5 h is -4.82%.

**Q.** For `O=C(c1cnn(-c2ccccc2)c1)N1CCN(c2cnccn2)CC1`, which cytotoxicity at 70.5 h is on record?
**A.** The cytotoxicity at 70.5 h was -15.3%.

**Q.** With `CCS(=O)(=O)Cc1ccn(-c2cccc(F)c2)n1` as the compound, how does the cytotoxicity at 70.5 h read?
**A.** The cytotoxicity at 70.5 h was -3.75%.

**Q.** For `COc1ccc(C(=O)N(C2CC2)C2CC(=O)NC2=O)cc1` (configuration not stated), which cytotoxicity at 70.5 h is on record?
**A.** Its cytotoxicity at 70.5 h is -2.33%.

**Q.** With `CN(C)C(=O)CCS(=O)(=O)Cc1ccn(-c2cccc(F)c2)n1` as the compound, how does the cytotoxicity at 70.5 h read?
**A.** Its cytotoxicity at 70.5 h is 4.33%.

**Q.** For `CC(C)c1nc(C2CCCN(C(=O)CN(C)S(C)(=O)=O)C2)no1` (configuration not stated), which cytotoxicity at 70.5 h is on record?
**A.** Its cytotoxicity at 70.5 h is 5.74%.

**Q.** Which cytotoxicity at 70.5 h does the source give for `CCn1nc(C)c(CNC(=O)NCC(C)(O)c2ccsc2)c1C` (configuration not stated) here?
**A.** Its cytotoxicity at 70.5 h is -8.94%.

**Q.** Which cytotoxicity at 70.5 h does the source give for `Cn1ncc(C(=O)OCC2CCN(c3ccccc3)C2)c1C(F)F` (configuration not stated) here?
**A.** Its cytotoxicity at 70.5 h is -3.5%.

**Q.** Which cytotoxicity at 70.5 h does the source give for `CC(C)NC(=O)CCNC(=O)Nc1cnn(-c2ccccc2F)c1` here?
**A.** Its cytotoxicity at 70.5 h is -0.437%.

**Q.** For `O=C(Nc1cnn(-c2ccccc2Cl)c1)N[C@@H]1C=C[C@H](CO)C1`, which cytotoxicity at 70.5 h is on record?
**A.** Its cytotoxicity at 70.5 h is -5.42%.

**Q.** For `CC1CN(S(=O)(=O)c2ccc(F)cc2)c2cccnc2O1` (configuration not stated), which cytotoxicity at 70.5 h is on record?
**A.** The cytotoxicity at 70.5 h was 1.22%.

**Q.** Which cytotoxicity at 70.5 h does the source give for `Cc1ccc(S(=O)(=O)N2CC(C)Oc3ncccc32)c(F)c1` (configuration not stated) here?
**A.** The cytotoxicity at 70.5 h was -7.65%.

**Q.** Which cytotoxicity at 70.5 h does the source give for `CC(C)(C(=O)NCCC(=O)O)c1cccc(Br)c1` here?
**A.** Its cytotoxicity at 70.5 h is -12.3%.

**Q.** With `COC(=O)C(O)C1CCN(CCc2ccncc2)CC1` (configuration not stated) as the compound, how does the cytotoxicity at 70.5 h read?
**A.** The cytotoxicity at 70.5 h was 9.73%.

**Q.** With `COC(=O)C(O)C1CCN(CCc2ccccn2)CC1` (configuration not stated) as the compound, how does the cytotoxicity at 70.5 h read?
**A.** The cytotoxicity at 70.5 h was -1.57%.

**Q.** With `COC1CCN(CCNC(=O)C2CCCCC2)CC1` as the compound, how does the cytotoxicity at 70.5 h read?
**A.** Its cytotoxicity at 70.5 h is -7.3%.

**Q.** For `CCOC(=O)C1CCN(C(=O)CN2CCCC2c2ccccc2C)CC1` (configuration not stated), which cytotoxicity at 70.5 h is on record?
**A.** Its cytotoxicity at 70.5 h is -10.7%.

**Q.** Which cytotoxicity at 70.5 h does the source give for `CCOC(=O)C1CCN(C(=O)CN2CCCC2c2cc(C)no2)CC1` (configuration not stated) here?
**A.** The cytotoxicity at 70.5 h was -17.8%.

**Q.** Which cytotoxicity at 70.5 h does the source give for `COC(=O)C(O)C1CCN(CCc2ccc(C)cc2)CC1` (configuration not stated) here?
**A.** Its cytotoxicity at 70.5 h is 9.49%.

**Q.** With `CCS(=O)(=O)CC(=O)N1CCCC(c2noc(C(C)C)n2)C1` (configuration not stated) as the compound, how does the cytotoxicity at 70.5 h read?
**A.** The cytotoxicity at 70.5 h was 8.9%.

**Q.** With `CCC(NC(=O)CN(C)Cc1ccc(C)o1)c1ccc(C)cc1` (configuration not stated) as the compound, how does the cytotoxicity at 70.5 h read?
**A.** The cytotoxicity at 70.5 h was -10.3%.

**Q.** With `O=C(CCCc1ccccn1)N1CCC(n2cccc2)CC1` as the compound, how does the cytotoxicity at 70.5 h read?
**A.** The cytotoxicity at 70.5 h was -1.32%.

**Q.** For `COCCOCCNC(=O)N1CCN(c2ccccc2C#N)CC1`, which cytotoxicity at 70.5 h is on record?
**A.** Its cytotoxicity at 70.5 h is -2.61%.

**Q.** Which cytotoxicity at 70.5 h does the source give for `CC(C)c1nc(C2CCCN(c3ncccn3)C2)no1` (configuration not stated) here?
**A.** The cytotoxicity at 70.5 h was -10.3%.

**Q.** Which cytotoxicity at 70.5 h does the source give for `O=C(NCc1ccccn1)N1CC=C(c2ccccc2)CC1` here?
**A.** The cytotoxicity at 70.5 h was -16.2%.
